Source: patent publication US8691210B2, “Methods and compositions for generating an immune response by inducing CD40 and pattern recognition receptors and adaptors thereof” (priority 2006, dated 2014)

Tests used:
human DCs = test: Cytokine (IL-12p70, IL-6) ELISA of human DC culture supernatants; format: cell-based; details: iCD40-DCs stimulated with the named TLR ligand
Method: Approximately 2×10^6 cells/ml were cultured in a 24-well dish and transduced with adenoviruses at 10,000 viral particle (vp)/cell (−160 MOI) for 90 min at 37° C. and 5% CO2. Immediately after transduction DCs were stimulated with MPL, FSL-1, Pam3CSK4 (InvivoGen, San Diego, Calif.), LPS (Sigma-Aldrich, St. Louis, Mo.), AP20187 (kind gift from ARIAD Pharmaceuticals, Cambridge, Mass.) or maturation cocktail (MC), containing 10 ng/ml TNF-alpha, 10 ng/ml IL-1beta, 150 ng/ml IL-6 (R&D Systems, Minneapolis, Minn.) and 1 micrograms/ml of PGE2 (Cayman Chemicals, Ann Arbor, Mich.). In T cell assays DCs were pulsed with 50 micrograms/ml of PSMA or MAGE 3 peptide 24 hours before and after adenoviral transduction.
Cell surface staining was done with fluorochrome-conjugated monoclonal antibodies (BD Biosciences, San Diego, Calif.). Cells were analyzed on a FACSCalibur cytometer (BD Biosciences, San Jose, Calif.). Cytokines were measured in culture supernatants using enzyme-linked immunosorbent assay kits for human IL-6 and IL-12p70 (BD Biosciences).

[1] = test system: Naive CD4+CD45RA+ T cells; test: Polarization of naive T helper cells; format: cell-based, human; details: tetanus toxoid-pulsed DCs, restimulation with TTp30
From the text: Naïve CD4+CD45RA+ T-cells from HLA-DR11.5-positive donors (genotyped using FASTYPE HLA-DNA SSP typing kit; BioSynthesis, Lewisville, Tex.) were isolated by negative selection using naïve CD4+ T cell isolation kit (Miltenyi Biotec, Auburn, Calif.). T cells were stimulated with autologous DCs pulsed with tetanus toxoid (5 FU/ml) and stimulated with various stimuli at a stimulator to responder ratio of 1:10. After 7 days, T cells were restimulated with autologous DCs pulsed with the HLA-DR11.5-restricted helper peptide TTp30 and transduced with adenovector Ad-iCD40. Cells were stained with PE-anti-CD4 Ab (BD Biosciences), fixed and permeabilized using BD Cytofix/Cytoperm kit (BD Biosciences), then stained with hIFN-gamma mAb (eBioscience, San Diego, Calif.) and analyzed by flow cytometry. Supernatants were analyzed using human TH1/TH2 BD Cytometric Bead Array Flex Set on BD FACSArray Bioanalyzer (BD Biosciences).

BMDCs [2] = test: In vitro serum-starvation DC survival assay (propidium iodide); format: cell-based, murine; details: relative to non-transduced DCs treated with CD40L or untreated BMDCs
From the text: In addition to DC activation state, DC longevity is another critical variable that influences the generation of T cell-dependent immunity. In fact, CTL-mediated killing of DCs is considered to be a significant mechanism for modulating immune responses while protecting the host from autoimmune pathologies^55,56. Other work has established that CD40 stimulation of DCs prolongs their survival by a variety of mechanisms, including upregulation of the anti-apoptotic protein bcl-XL and the granzyme B inhibitor, Spi-6^57,58. The effects of iCD40 relative to CD40L on DC survival were compared in an in vitro serum-starvation culture assay (FIG. 11E).

BMDCs [3] = test: BMDC survival (GM-CSF deprivation, wortmannin); format: cell-based
Method: To further test the hypothesis that PI3K and Akt are common regulators for innate and acquired immune signal-mediated DC survival, various concentrations (0.05-5 μM) of PI3K inhibitor, wortmannin, in BMDCs treated with LPS or anti-CD40 were tested.
To more directly investigate the role of Akt in PI3K-mediated DC survival, a previously described constitutively active Akt (M-Akt) allele, consisting of full length Akt, targeted to intracellular membranes with a myristoylation-targeting sequence from c-Src^62 was used. […] Therefore, to test the possibility that the efficient lipid raft localization of Akt improve its functions, this construct was compared with several distinct deregulated Akt alleles, containing myristoylation-targeting sequences from Src family kinases Src, Fyn and Lck fused to AAkt. The pleckstrin homology (PH) domain (residues 1-102) was removed to further improve Akt activity when PI3K is limiting^64. […] Therefore, MF-ΔAkt was used in subsequent experiments. Moreover, for improved expression in BMDCs, replication-defective adenovirus, Ad-MF-ΔAkt, expressing functionally optimized Akt was generated. Consistently, Ad-MF-ΔAkt led to higher GSK3α/β phosphorylation in BMDCs, compared with Ad-M-Akt^62. […] Thus, functionally optimized Akt almost completely suppresses induction of DC death by PI3K (but not Src) inhibition. […]

human SOCS1 = test: Real time Q-PCR assay for human SOCS1 in DCs; format: cell-based
From the text: Total RNA was purified and reverse transcribed with random hexamers using SuperScript II RTase (Invitrogen, Carlsbad, Calif.). mRNA levels were quantified in DCs by subjecting cDNA to TaqMan PCR analysis using the GeneAmp 5700 Sequence Detection System (Applied Biosystems, Foster City, Calif.). Pre-developed sequence detection reagents (Applied Biosystems) specific for human SOCS1 and 18S rRNA, including forward and reverse primers as well as a fluorogenic TaqMan FAM-labeled hybridization probe, were supplied as mixtures and were used at 1 microliter/20 microliter PCR. Samples were run in duplicates. The level of SOCS1 expression in each sample was normalized to the level of 18S rRNA from the same sample using the comparative 2-ΔΔCT method^21.

[4] = test system: primary bone marrow-derived DCs (BMDCs); test: iCD40 functionality in primary BMDCs (surface markers, intracellular IL-12 staining); format: cell-based, murine; details: stimulation with LPS and CD40L
From the text: A helper-dependent, […] adenoviral vector, named Ad-iCD40-GFP, was engineered to express both iCD40 and EGFP under the control of the CMV early/immediate promoter/enhancer. Ad-iCD40-GFP successfully transduced and expressed the iCD40 transgene, as well as the EGFP marker, in purified BMDCs (FIG. 11A,B). […] The effects of Ad-iCD40-GFP on BMDCs using intracellular cytokine staining to evaluate DC expression of the TH1-polarizing cytokine, IL-12 was then investigated. These findings confirmed numerous previous reports that an empty adenoviral vector can contribute to background fluorescence readings by stimulating the production of low levels of this cytokine. (FIG. 11D)^53. […] However, AP20187 exposure of these iCD40-expressing DCs managed to reproducibly overcome these cumulative effects to further increase the percentage of IL-12′ DCs.

## FSL-1
Human DCs
  IL12-p70 induced by TLR ligand in iCD40-DCs: only low levels

## Pam3 CSK4
Human DCs
  IL12-p70 induced by TLR ligand in iCD40-DCs: only low levels

## monophosphoryl lipid A [MPL]
Human DCs
  IL12-p70 induced by TLR ligand in iCD40-DCs: synergized with CD40 signaling
[1]
  IFN-gamma production in CD4+ T cells: not induced

## CC[C@H](C(=O)N1CCCC[C@H]1C(=O)O[C@H](CCc1ccc(OC)c(OC)c1)c1cccc(OCC(=O)NCC(CNC(=O)COc2cccc([C@@H](CCc3ccc(OC)c(OC)c3)OC(=O)[C@@H]3CCCCN3C(=O)[C@@H](CC)c3cc(OC)c(OC)c(OC)c3)c2)CN(C)C)c1)c1cc(OC)c(OC)c(OC)c1 [AP20187]
BMDCs [2]
  DC longevity: even further enhanced this survival effect

## Lipopolysaccharide [LPS]
BMDCs [3]
  Protection against GM-CSF deprivation-mediated DC death: protect against GM-CSF deprivation-mediated DC death
Human SOCS1
  SOCS1 induction: up-regulated SOCS1 expression
Human DCs
  IL12-p70 induced by TLR ligand in iCD40-DCs: synergized with CD40 signaling
[4]
  Time of peak IL-12p70/p40 synthesis: 8 h

B1: CD40L: CD40 ligand (Alexis Biochemicals) (protein)
chain: GDQNPQIAAHVISEASSKTTSVLQWAEKGYYTMSNNLVTLENGKQLTVKRQGLYYIYAQVTFCSNREASSQAPFIASLCLKSPGRFERILLRAANTHSSAKPCGQQSIHLGGVFELQPGASVFVNVTDPSQVSHGTGFTSFGLLKL
[4]
  Time of peak IL-12p70/p40 synthesis: 8 h
